US4337199A, “Antibiotic β-lactam compounds, production thereof, and their use as antimicrobial agent” (Sanraku-Ocean Co., Ltd., priority 1978, dated 1982)
Converted amounts (≈) assume the structure as drawn. Where two headings read alike, the source gives them in different places.

What was measured:
Assay in all cases: minimum inhibitory concentration, agar dilution assay
Format in all cases: cell-based
Alcaligenes faecalis A 1 = conditions: read-out: minimum inhibitory concentration
Protocol: (§1) The antibiotic activities shown in Tables I-1 to I-8 above were determined in the following manner.
(§2) The minimum inhibitory concentrations of the compounds of formula (I-a-1) or (I-b-1) in Tables I-1 to I-7 and the known compounds in Table I-8 on the various microorganisms shown in the above tables were measured by an agar dilution assay method using a brain heart infusion agar medium "Difco" (a product of Difco Laboratories Inc.)
(§3) A sample of the test compound was dissolved in sterile distilled water and diluted to prepare a two-fold dilution series of the compound solution. In a petri plate of 9 cm diameter, 1 ml of the compound solution was added to 9 ml of molten sterile heart infusion agar medium (Difco Laboratories Inc.) at about 60° C. to prepare the compound-containing agar plate. An overnight culture of each test organism indicated in the above table which was prepared by stationary cultivation in Trypto-Soy broth (Eiken Chemi. Co., Ltd.) at 35° C. for 18 to 20 hours, was diluted with the Trypto-Soy broth to give approximately 10^8 cells/ml and the diluted inoculum was inoculated onto the compound-containing agar plates. After cultivating the plates at 35° C. for 20 hours, the growth of the organism was observed. The minimum concentration of the compound at which no growth of the microorganism was noted was determined, and defined as the minimum inhibitory concentration of the test compound.

[1] = test system: Bacillus subtilis ATCC 6633; conditions: read-out: minimum inhibitory concentration
Protocol: as §1, §2, §3

[2] = test system: Citrobacter freundii GN 346; conditions: read-out: minimum inhibitory concentration
Protocol: as §1, §2, §3

[3] = test system: Comamonas terrigena B-996; conditions: read-out: minimum inhibitory concentration
Protocol: as §1, §2, §3

[4] = test system: Enterobacter aerogenes E19; conditions: Klebsiella aerogenes, read-out: minimum inhibitory concentration
Protocol: as §1, §2, §3

Enterobacter cloacae 45 = conditions: read-out: minimum inhibitory concentration
Protocol: as §1, §2, §3

Enterobacter sp. E8 = conditions: read-out: minimum inhibitory concentration
Protocol: as §1, §2, §3

Escherichia coli K-12 = conditions: read-out: minimum inhibitory concentration
Protocol: as §1, §2, §3

Escherichia coli RGN 823 = conditions: read-out: minimum inhibitory concentration
Protocol: as §1, §2, §3

[5] = test system: Klebsiella pneumoniae K-13; conditions: read-out: minimum inhibitory concentration
Protocol: as §1, §2, §3

Proteus mirabilis P6 = conditions: read-out: minimum inhibitory concentration
Protocol: as §1, §2, §3

Proteus rettgeri P7 = conditions: Providencia rettgeri, read-out: minimum inhibitory concentration
Protocol: as §1, §2, §3

Proteus sp. P22 = conditions: read-out: minimum inhibitory concentration
Protocol: as §1, §2, §3

Proteus vulgaris GN76 = conditions: read-out: minimum inhibitory concentration
Protocol: as §1, §2, §3

Providencia sp. P8 = conditions: read-out: minimum inhibitory concentration
Protocol: as §1, §2, §3

[6] = test system: Pseudomonas aeruginosa IFO3445; conditions: read-out: minimum inhibitory concentration
Protocol: as §1, §2, §3

[7] = test system: Pseudomonas aeruginosa NCTC10490; conditions: read-out: minimum inhibitory concentration
Protocol: as §1, §2, §3

Sarcina lutea = conditions: Micrococcus luteus, read-out: minimum inhibitory concentration
Protocol: as §1, §2, §3

Serratia marcescens S18 = conditions: read-out: minimum inhibitory concentration
Protocol: as §1, §2, §3

Serratia marcescens T55 = conditions: read-out: minimum inhibitory concentration
Protocol: as §1, §2, §3

[8] = test system: Staphylococcus aureus FDA 209P; conditions: FDA209P, read-out: minimum inhibitory concentration
Protocol: as §1, §2, §3

[9] = test system: Staphylococcus aureus Russell; conditions: read-out: minimum inhibitory concentration
Protocol: as §1, §2, §3

[10] = test system: Staphylococcus aureus Smith; conditions: read-out: minimum inhibitory concentration
Protocol: as §1, §2, §3

[11] = test system: Staphylococcus epidermidis; conditions: read-out: minimum inhibitory concentration
Protocol: as §1, §2, §3

[12] = P7, agar dilution, 35° C., 20 hours
[13] = agar dilution, 35° C., 20 hours
[14] = GN76, agar dilution, 35° C., 20 hours
[15] = SP.P8, agar dilution, 35° C., 20 hours
[16] = IFO3445, agar dilution, 35° C., 20 hours
[17] = NCTC10490, agar dilution, 35° C., 20 hours
[18] = S18, agar dilution, 35° C., 20 hours
[19] = T55, agar dilution, 35° C., 20 hours
[20] = A1, agar dilution, 35° C., 20 hours
[21] = ATCC6633, agar dilution, 35° C., 20 hours
[22] = GN346, agar dilution, 35° C., 20 hours
[23] = B996, agar dilution, 35° C., 20 hours
[24] = E19, agar dilution, 35° C., 20 hours
[25] = Enterobacter cloacae, 45, agar dilution, 35° C., 20 hours
[26] = SP.E8, agar dilution, 35° C., 20 hours
[27] = K12, agar dilution, 35° C., 20 hours
[28] = RGN823, agar dilution, 35° C., 20 hours
[29] = K13, agar dilution, 35° C., 20 hours
[30] = P6, agar dilution, 35° C., 20 hours

## CCC1C(=O)N2C(C(=O)[O-])=C(Sc3ccccc3)CC12.[Na+] (centres unmarked)
Alcaligenes faecalis A 1; A1, 20 h
  MIC: 4.7 µg/mL
[1]; ATCC6633, 20 h
  MIC: 0.07 µg/mL
[2]; GN346, 20 h
  MIC: 150 µg/mL
[3]; B996, 20 h
  MIC: < 0.01 µg/mL
[4]; E19, 20 h
  MIC: 150 µg/mL
Enterobacter cloacae 45; Enterobacter cloacae, 45, 20 h
  MIC: 150 µg/mL
Enterobacter sp. E8; SP.E8, 20 h
  MIC: 75 µg/mL
Escherichia coli K-12; K12, 20 h
  MIC: 37.5 µg/mL
Escherichia coli RGN 823; RGN823, 20 h
  MIC: 37.5 µg/mL
[5]; K13, 20 h
  MIC: > 150 µg/mL
Proteus mirabilis P6; P6, 20 h
  MIC: 75 µg/mL
Proteus rettgeri P7; P7, 20 h
  MIC: 75 µg/mL
Proteus sp. P22; 20 h
  MIC: 75 µg/mL
Proteus vulgaris GN76; GN76, 20 h
  MIC: 150 µg/mL
Providencia sp. P8; SP.P8, 20 h
  MIC: 18.8 µg/mL
[6]; IFO3445, 20 h
  MIC: 18.8 µg/mL
[7]; NCTC10490, 20 h
  MIC: 4.7 µg/mL
Sarcina lutea; 20 h
  MIC: < 0.01 µg/mL
Serratia marcescens S18; S18, 20 h
  MIC: 75 µg/mL
Serratia marcescens T55; T55, 20 h
  MIC: 150 µg/mL
[8]; 20 h
  MIC: < 0.01 µg/mL
[9]; 20 h
  MIC: < 0.01 µg/mL
[10]; 20 h
  MIC: 0.1 µg/mL
[11]; 20 h
  MIC: < 0.01 µg/mL

## CC(C)C1C(=O)N2C(C(=O)O)=C(Sc3ccccn3)CC12 (centres unmarked)
Proteus rettgeri P7; [12]
  MIC: 6.25 µg/mL (≈ 20.5 µM)
Proteus sp. P22; [13]
  MIC: 12.5 µg/mL (≈ 41.1 µM)
Proteus vulgaris GN76; [14]
  MIC: 12.5 µg/mL (≈ 41.1 µM)
Providencia sp. P8; [15]
  MIC: 3.13 µg/mL (≈ 10.3 µM)
[6]; [16]
  MIC: 50 µg/mL (≈ 164 µM)
[7]; [17]
  MIC: 50 µg/mL (≈ 164 µM)
Serratia marcescens S18; [18]
  MIC: 50 µg/mL (≈ 164 µM)
Serratia marcescens T55; [19]
  MIC: 50 µg/mL (≈ 164 µM)

## CC(O)[C@H]1C(=O)N2C(C(=O)O)=C(Sc3ccccn3)C[C@H]12 (some centres unmarked)
Alcaligenes faecalis A 1; [20]
  MIC: 0.78 µg/mL (≈ 2.55 µM)
[1]; [21]
  MIC: 0.78 µg/mL (≈ 2.55 µM)
[2]; [22]
  MIC: 100 µg/mL (≈ 326 µM)
[3]; [23]
  MIC: 0.2 µg/mL (≈ 0.653 µM)
[4]; [24]
  MIC: > 100 µg/mL
Enterobacter cloacae 45; [25]
  MIC: 100 µg/mL (≈ 326 µM)
Enterobacter sp. E8; [26]
  MIC: 25 µg/mL (≈ 81.6 µM)
Escherichia coli K-12; [27]
  MIC: 6.25 µg/mL (≈ 20.4 µM)
Escherichia coli RGN 823; [28]
  MIC: 12.5 µg/mL (≈ 40.8 µM)
[5]; [29]
  MIC: 50 µg/mL (≈ 163 µM)
Proteus mirabilis P6; [30]
  MIC: 12.5 µg/mL (≈ 40.8 µM)
Proteus rettgeri P7; [12]
  MIC: 25 µg/mL (≈ 81.6 µM)
Proteus sp. P22; [13]
  MIC: 12.5 µg/mL (≈ 40.8 µM)
Proteus vulgaris GN76; [14]
  MIC: 25 µg/mL (≈ 81.6 µM)
Providencia sp. P8; [15]
  MIC: 3.13 µg/mL (≈ 10.2 µM)
[6]; [16]
  MIC: 12.5 µg/mL (≈ 40.8 µM)
[7]; [17]
  MIC: 25 µg/mL (≈ 81.6 µM)
Sarcina lutea; [13]
  MIC: 0.013 µg/mL (≈ 0.0424 µM)
Serratia marcescens S18; [18]
  MIC: 50 µg/mL (≈ 163 µM)
Serratia marcescens T55; [19]
  MIC: 100 µg/mL (≈ 326 µM)
[8]; [13]
  MIC: 0.05 µg/mL (≈ 0.163 µM)
[9]; [13]
  MIC: 0.39 µg/mL (≈ 1.27 µM)
[10]; [13]
  MIC: 0.39 µg/mL (≈ 1.27 µM)
[11]; [13]
  MIC: 1.56 µg/mL (≈ 5.09 µM)

## CC(O)C1C(=O)N2C(C(=O)O)=C(Sc3ccccn3)CC12 (centres unmarked)
Alcaligenes faecalis A 1; [20]
  MIC: 6.25 µg/mL (≈ 20.4 µM)
[1]; [21]
  MIC: < 0.007 µg/mL
[2]; [22]
  MIC: 6.25 µg/mL (≈ 20.4 µM)
[3]; [23]
  MIC: < 0.007 µg/mL
[4]; [24]
  MIC: 6.25 µg/mL (≈ 20.4 µM)
Enterobacter cloacae 45; [25]
  MIC: 12.5 µg/mL (≈ 40.8 µM)
Enterobacter sp. E8; [26]
  MIC: 0.78 µg/mL (≈ 2.55 µM)
Escherichia coli K-12; [27]
  MIC: 0.39 µg/mL (≈ 1.27 µM)
Escherichia coli RGN 823; [28]
  MIC: 3.13 µg/mL (≈ 10.2 µM)
[5]; [29]
  MIC: 25 µg/mL (≈ 81.6 µM)
Proteus mirabilis P6; [30]
  MIC: 0.39 µg/mL (≈ 1.27 µM)
Proteus rettgeri P7; [12]
  MIC: 3.13 µg/mL (≈ 10.2 µM)
Proteus sp. P22; [13]
  MIC: 12.5 µg/mL (≈ 40.8 µM)
Proteus vulgaris GN76; [14]
  MIC: 12.5 µg/mL (≈ 40.8 µM)
Providencia sp. P8; [15]
  MIC: 0.2 µg/mL (≈ 0.653 µM)
[6]; [16]
  MIC: 12.5 µg/mL (≈ 40.8 µM)
[7]; [17]
  MIC: 50 µg/mL (≈ 163 µM)
Sarcina lutea; [13]
  MIC: < 0.007 µg/mL
Serratia marcescens S18; [18]
  MIC: 12.5 µg/mL (≈ 40.8 µM)
Serratia marcescens T55; [19]
  MIC: 25 µg/mL (≈ 81.6 µM)
[8]; [13]
  MIC: < 0.007 µg/mL
[9]; [13]
  MIC: 0.013 µg/mL (≈ 0.0424 µM)
[10]; [13]
  MIC: 0.013 µg/mL (≈ 0.0424 µM)
[11]; [13]
  MIC: 0.05 µg/mL (≈ 0.163 µM)

## CC(C)C1C(=O)N2C(C(=O)O)=C(SC3CCCCC3)CC12 (centres unmarked)
Alcaligenes faecalis A 1; [20]
  MIC: 6.25 µg/mL (≈ 20.2 µM)
[1]; [21]
  MIC: 0.2 µg/mL (≈ 0.646 µM)
[2]; [22]
  MIC: > 100 µg/mL
[3]; [23]
  MIC: 0.007 µg/mL (≈ 0.0226 µM)
[4]; [24]
  MIC: > 100 µg/mL
Enterobacter cloacae 45; [25]
  MIC: > 100 µg/mL
Enterobacter sp. E8; [26]
  MIC: > 100 µg/mL
Escherichia coli K-12; [27]
  MIC: > 100 µg/mL
Escherichia coli RGN 823; [28]
  MIC: > 100 µg/mL
[5]; [29]
  MIC: > 100 µg/mL
Proteus mirabilis P6; [30]
  MIC: 100 µg/mL (≈ 323 µM)
Proteus rettgeri P7; [12]
  MIC: > 100 µg/mL
Proteus sp. P22; [13]
  MIC: 100 µg/mL (≈ 323 µM)
Proteus vulgaris GN76; [14]
  MIC: > 100 µg/mL
Providencia sp. P8; [15]
  MIC: > 100 µg/mL
[6]; [16]
  MIC: > 100 µg/mL
[7]; [17]
  MIC: 50 µg/mL (≈ 162 µM)
Sarcina lutea; [13]
  MIC: 0.025 µg/mL (≈ 0.0808 µM)
Serratia marcescens S18; [18]
  MIC: > 100 µg/mL
Serratia marcescens T55; [19]
  MIC: > 100 µg/mL
[8]; [13]
  MIC: 0.025 µg/mL (≈ 0.0808 µM)
[9]; [13]
  MIC: 0.025 µg/mL (≈ 0.0808 µM)
[10]; [13]
  MIC: 0.05 µg/mL (≈ 0.162 µM)
[11]; [13]
  MIC: 0.05 µg/mL (≈ 0.162 µM)
